PubChem BioAssay (NCI)
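The concentration for 50% growth inhibition is given as GI50. TGI marks complete inhibition of growth.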

How the values were obtained:
Assay in all cases: NCI-60 cell line screen, 384-well format
UACC-257 melanoma = test system: UACC-257 melanoma
MDA-MB-231 breast = test system: MDA-MB-231 breast
HCT-15 colon = test system: HCT-15 colon
786-0 renal = test system: 786-0 renal
ACHN renal = test system: ACHN renal
COLO 205 colon = test system: COLO 205 colon
M14 melanoma = test system: M14 melanoma
NCI-H226 lung = test system: NCI-H226 lung
OVCAR-8 ovarian = test system: OVCAR-8 ovarian
NCI/ADR-RES ovarian = test system: NCI/ADR-RES ovarian
HCC-2998 colon = test system: HCC-2998 colon
SK-OV-3 ovarian = test system: SK-OV-3 ovarian
OVCAR-4 ovarian = test system: OVCAR-4 ovarian

## O=C(/C=C/c1cccc(S(=O)(=O)Nc2ccccc2)c1)NO
UACC-257 melanoma
  GI50: 289 nM
  TGI: 1030 nM
MDA-MB-231 breast
  GI50: 249 nM
  TGI: 575 nM
HCT-15 colon
  GI50: 579 nM
  TGI: 2100 nM
786-0 renal
  GI50: 898 nM
  TGI: 2780 nM
ACHN renal
  GI50: 493 nM
  TGI: 1540 nM
COLO 205 colon
  GI50: 330 nM
  TGI: 791 nM
M14 melanoma
  GI50: 537 nM
  TGI: 2140 nM
NCI-H226 lung
  GI50: 1260 nM
  TGI: 3050 nM
OVCAR-8 ovarian
  GI50: 225 nM
  TGI: 985 nM
NCI/ADR-RES ovarian
  GI50: 210 nM
  TGI: 551 nM
HCC-2998 colon
  GI50: 490 nM
  TGI: 1220 nM
SK-OV-3 ovarian
  GI50: 490 nM
  TGI: 1650 nM
OVCAR-4 ovarian
  GI50: 1880 nM
  TGI: 5860 nM
